In PubChem BioAssay AID1996:
Converted amounts (≈) assume the structure as drawn.

settings: buffer; pH 7.4; 200.0 µM

| Structure (SMILES) | solubility kinetic [µg/mL] |
| --- | --- |
| CN1CCN(c2ccc(C(F)(F)F)cc2NC(=O)c2ccco2)CC1 | > 53 |
| S=C(c1ccc(Br)cc1)N1CCCC1 | > 40.5 |
| COc1ccc(CNCC(O)(c2ccccc2)c2ccccc2)cc1 | > 50 |
| C/C(N)=C(/C#N)C(=O)COC(=O)c1ccccc1Cc1ccccc1 | 22.3 (≈ 66.7 µM) |
| NC(=O)CSc1nccn1Cc1ccccc1 | > 37.1 |
| COc1ccc(NC(=O)c2cc(S(=O)(=O)N3CCCC3)oc2C)cc1 | 2.5 (≈ 6.86 µM) |
| CC1CN(C(=S)Nc2ccccc2)CC(C)O1 (centres undefined) | 35.4 (≈ 141 µM) |
| N#Cc1c(Nc2ccccc2)s[nH]c1=O | > 32.6 |
| Cc1noc(C)c1C(=O)OC(C)C(=O)NC(C)c1ccc(Cl)cc1Cl (centres undefined) | 10.6 (≈ 27.5 µM) |
| Cc1nnc(SCC(=O)NC2CC2)s1 | > 34.4 |
| COc1ccc(C)cc1S(=O)(=O)N1CC(C)OC(C)C1 (centres undefined) | > 44.9 |
| Cc1cccc(C)c1N1C(=O)[C@@H]2C(c3ccccc3Cl)=NO[C@@H]2C1=O | 39.6 (≈ 112 µM) |
| CC1(CCBr)C(=O)N(c2ccccc2)c2ccccc21 (centres undefined) | 22.9 (≈ 69.3 µM) |
| O=[N+]([O-])c1ccccc1S(=O)(=O)N/C(=N/S(=O)(=O)c1ccccc1)c1ccccc1 | > 66.8 |
| CCOc1cc(/C=N/NC(=O)C2CCCC2)ccc1O | > 41.5 |
| CC1NC(=O)NC1CCCCCC(=O)Nc1ccc(F)cc1 (centres undefined) | > 46.1 |
| Cc1ccc(NC(=O)c2cccc(N3C(=O)C4C5C=CC(C5)C4C3=O)c2)cc1C (centres undefined) | 1.5 (≈ 3.88 µM) |
| Cc1ccc(OCC(=O)O/N=C(\N)c2ccccn2)cc1 | > 42.8 |
| COc1ccc(CNCc2cccn2C)cc1.Cl | > 40 |
| NC(=O)C1CCN(C(=O)/C=C/c2cccc(Br)c2)CC1 | 46.9 (≈ 139 µM) |
| Cc1nnc(SCCCCSc2nnc(C)c(=O)[nH]2)[nH]c1=O | > 51.1 |
| Cl.NC(Cc1ccccc1)Cc1ccccc1 | > 37.2 |
| Cc1ccc(C(=O)NCC(=O)NC2CCCCCC2)cc1 | 21.1 (≈ 73.2 µM) |
| Cc1ccc(NC(=S)NCCc2ccc(Cl)cc2)c(C)c1 | < 0.3 |

| Structure (SMILES) | solubility kinetic [µg/mL] |
| --- | --- |
| COc1ccc(CNC(=O)C2CCC(=O)N2C(C)C)c(OC)c1 (centres undefined) | > 48.1 |
| CSc1ccc(C(=O)NCC(=O)O)cc1[N+](=O)[O-] | > 40.5 |
| CCOC(=O)c1c(C)[nH]c(C(=O)COC(=O)c2cc(C)oc2C)c1C | 3 (≈ 8.64 µM) |
| CSc1ncccc1C(=O)OCC(=O)Nc1ccc(C)c(S(=O)(=O)N2CCOCC2)c1 | 21 (≈ 45.1 µM) |
| O=C(CSc1ccc(F)cc1)Nc1ccc(C2SCCS2)cc1 | < 0.8 |
| CC(C)(C)c1cc(CCC(=O)N2CCC2)cc(C(C)(C)C)c1O | 42.6 (≈ 134 µM) |
| Oc1ccc2ccccc2c1CN1CCOCC1 | > 36.5 |
| CC(C)n1c(COc2ccccc2)nc2ccccc21 | 24.1 (≈ 90.5 µM) |
| Cc1cc(OCC(=O)NCCc2c[nH]c3ccccc23)c2c(C)cc(=O)oc2c1 | < 0.4 |
| CCCS(=O)(=O)N1CCCC(C(=O)Oc2ccc(Cl)cc2)C1 (centres undefined) | 1.5 (≈ 4.34 µM) |
| Cc1cn(C2OC(CC(=O)Oc3ccccc3)C(O)C2O)c(=O)[nH]c1=O (centres undefined) | 48.5 (≈ 134 µM) |
| O=C(/C(=C(\O)c1ccccc1)c1ncc[nH]1)c1ccccc1 | 9.5 (≈ 32.7 µM) |
| COc1ccccc1NC(=O)c1ccc2[nH]c(C)c(C)c2c1 | 2.1 (≈ 7.13 µM) |
| CC(=O)N(Cc1nc2sc(C)c(C)c2c(=O)[nH]1)C1CCCC1 | 19.5 (≈ 61 µM) |
| CCOc1cc(C2NC(=O)NC2=O)ccc1O (centres undefined) | > 35.4 |
| Cc1ccc(-c2c(C(=O)O)c(C(=O)O)c3n2CSC3)cc1 | > 45.5 |
| Cc1nc([N+](=O)[O-])cn1CC(O)c1ccc(F)cc1 (centres undefined) | > 39.8 |
| Cc1cc(C)nc(N2C(=O)CC(Cc3ccc(Cl)cc3)C2=O)n1 (centres undefined) | > 49.5 |
| COc1ccc(-c2ncncc2-c2ccccc2)c(O)c1 | 11.6 (≈ 41.7 µM) |
| CCCCOc1ccc(C(=O)N2CCN(c3ncccn3)CC2)cc1 | 12.2 (≈ 35.8 µM) |
| Cc1cc(C(=O)OCC(=O)Nc2ccccc2Br)c(C)o1 | 4.4 (≈ 12.5 µM) |
| CN(C)CCCNc1nc(N)c([N+](=O)[O-])c(NCCO)n1 | 39 (≈ 130 µM) |
| COc1ccc(Nc2ccc(N3C(=O)CCC3=O)cc2[N+](=O)[O-])cn1 | 3.1 (≈ 9.06 µM) |
| CC(C)C(C)NC(=O)COc1ncnc2sccc12 (centres undefined) | > 41.9 |

| Structure (SMILES) | solubility kinetic [µg/mL] |
| --- | --- |
| CCC(C(=O)NC(CC(=O)O)c1ccc(Cl)cc1)c1ccccc1 (centres undefined) | > 51.9 |
| CCOc1ncccc1C(=O)OCC(=O)NCc1ccc2c(c1)OCO2 | > 53.8 |
| CN1CCN(c2ccc(CNC(=O)c3ccc4c(c3)OCCO4)cc2)CC1 | 49.7 (≈ 135 µM) |
| N#C/C(=C\c1ccc(O)cc1)C(=O)NCc1cccc(Cl)c1 | < 0.3 |
| Cc1ccc2cc(NC(=O)c3cccc(F)c3)ccc2n1 | 28.6 (≈ 102 µM) |
| O=C(Nc1c(C(=O)O)[nH]c2ccccc12)c1cccc(C(F)(F)F)c1 | > 52.2 |
| COC(=O)c1ccc(Nc2ncnc3sccc23)cc1 | 1.8 (≈ 6.31 µM) |
| S=C1SCN(Cc2cccnc2)CN1Cc1ccccc1 | 38.9 (≈ 123 µM) |
| Cc1cccc(-c2noc(C(C)NC(=O)c3ccco3)n2)c1 (centres undefined) | 32.9 (≈ 111 µM) |
| CC1(c2ccc3ccccc3c2)NC(=O)NC1=O (centres undefined) | 29.3 (≈ 122 µM) |
| O=[N+]([O-])c1ccc(C(=S)N2CCCC2)cc1 | > 35.4 |
| CC(CC(=O)O)CC(=O)Nc1cc(C(F)(F)F)cc(C(F)(F)F)c1 (centres undefined) | > 53.6 |
| O=C(CCCc1ccccc1)NCc1ccccn1 | 29.2 (≈ 115 µM) |
| COc1ccc(CCNC(=O)Nc2ccc(F)cc2F)cc1OC | 1.6 (≈ 4.76 µM) |
| O=C(Nc1nc2ccc(Cl)cc2s1)C1CC1 | 4.8 (≈ 19 µM) |
| CC(C)c1ccc(CN2C(=O)NC3(CCCCCC3)C2=O)cc1 | < 0.3 |
| CCS(=O)(=O)c1ccc(O)c(NC(=O)Nc2ccc(C(C)(C)C)cc2)c1 | 0.8 (≈ 2.12 µM) |
| N#CCCN(C(=O)CSc1n[nH]c(=O)[nH]c1=O)c1ccccc1 | > 49.7 |
| CC(=O)Nc1nc2c(ccc3ccccc32)s1 | 0.9 (≈ 3.71 µM) |
| CC(=O)c1ccc(OCCCC(=O)Nc2cccc(S(=O)(=O)N3CCOCC3)c2)cc1 | 56 (≈ 125 µM) |
| O=C(O)/C=C/C(=O)NCCC(c1ccccc1)c1ccccc1 | > 46.4 |
| CN(C(=O)COC(=O)c1cccc(F)c1)c1ccccc1 | 32 (≈ 111 µM) |
| S=C(Nc1cc(Cl)cc(Cl)c1)N1CCCC1 | 3 (≈ 10.9 µM) |
| O=C(CNCc1ccccc1)Nc1ccc(Cl)cc1 | 38.6 (≈ 140 µM) |

| Structure (SMILES) | solubility kinetic [µg/mL] |
| --- | --- |
| O=C(c1sccc1Cl)N1CCN(Cc2ccc3c(c2)OCO3)CC1 | > 54.7 |
| CC1CCCCN1Cc1ccc(Cl)nc1 (centres undefined) | 15.5 (≈ 69 µM) |
| CC1CN(C(=O)c2ccc(NS(=O)(=O)c3ccc(C(C)(C)C)cc3)cc2)CC(C)O1 (centres undefined) | 48 (≈ 111 µM) |
| CCCCC(=O)N=c1sc2c(OC)ccc(OC)c2n1C | < 0.3 |
| Cc1ccc2cc(CNCCc3ccccc3C)c(=O)[nH]c2c1 | 40.7 (≈ 133 µM) |
| Cc1[nH]c2ccccc2c1-c1nc2ccccc2[nH]c1=O | 1.3 (≈ 4.72 µM) |
| Cc1ccc(C(=O)NC(=S)N2CCCCCC2)cc1 | > 41.5 |
| COc1ccccc1CNC(=O)c1cc2ccccc2oc1=O | < 0.7 |
| O=C(COC(=O)CSc1ccc(Cl)cc1)Nc1ccc2[nH]c(=O)[nH]c2c1 | 13.5 (≈ 34.5 µM) |
| O=C(Nc1ccc(OC(F)(F)F)cc1)c1cnccn1 | 11.3 (≈ 39.9 µM) |
| CN(C)C(CNC(=O)CSC(=S)N1CCCC1)c1ccccc1 (centres undefined) | > 52.7 |
| O=C(NC(=S)N1CCc2ccccc21)C1CCC1 | > 39.1 |
| O=C(c1cccnc1)c1ncc(C(F)(F)F)cc1Cl | 35.7 (≈ 125 µM) |
| COCCNC(=S)Nc1ccccc1Cc1ccccc1 | 13.7 (≈ 45.6 µM) |
| O=C(NCc1ccc(F)cc1F)c1cc(COc2c(F)cccc2F)on1 | 1.5 (≈ 3.94 µM) |
| CC[C@H](C)[C@H](NC(N)=O)C(=O)NCCc1ccc(OC)cc1 | > 46.1 |
| Cc1[nH]c2ccc3ccccc3c2c(=O)c1C/C=C/Cl | 1.1 (≈ 3.88 µM) |
| Oc1ccc(-c2nccc(-c3ccccn3)n2)cc1 | 12.6 (≈ 50.5 µM) |
| CN(Cc1ccccc1)C(=O)COC(=O)c1ccc[nH]c1=O | > 45 |
| CCOc1ccc(NC(=O)C2CCCN(S(C)(=O)=O)C2)cc1 (centres undefined) | 4.1 (≈ 12.6 µM) |
| Cc1cnc(C(=O)OCC(=O)N2C(C)CCCC2C)cn1 (centres undefined) | > 43.7 |
| O=S(=O)(Nc1ccncc1)c1ccc(Cl)c(Cl)c1 | 3.7 (≈ 12.2 µM) |
| CN(Cc1ccccc1)c1ncnc2sccc12 | 32.4 (≈ 127 µM) |
| Cc1ccc(S(=O)(=O)NCc2csc(C)n2)cc1 | > 42.4 |

| Structure (SMILES) | solubility kinetic [µg/mL] |
| --- | --- |
| Cc1cc(C(=O)NCC(=O)Nc2c(C)cccc2C)c(C)o1 | 23.8 (≈ 79.2 µM) |
| O=[N+]([O-])c1ccc(Nc2ccccn2)c([N+](=O)[O-])c1 | 2.7 (≈ 10.4 µM) |
| CC(OC(=O)c1cn(C)c2ccccc12)C(=O)N1CCCC1 (centres undefined) | > 45.1 |
| Cc1cc(C(=O)N(C)C2CCCCC2)no1 | > 33.3 |
| COCC(C)N1C(=O)Cc2c1nc(N)c1c(N)nc(N3CCN(c4ccccc4F)CC3)c(C#N)c21 (centres undefined) | 1.7 (≈ 3.47 µM) |
| CCn1cnc2c1c(=O)n(CC(=O)O)c(=O)n2Cc1ccccc1 | > 49.2 |
| Cn1nnc(NC(=O)c2ccc(Br)o2)n1 | > 40.8 |
| C=CCc1cccc(C=Nc2c[nH]c(=O)[nH]c2=O)c1O | 8.4 (≈ 31 µM) |
| CCNC(=O)c1ccc(NS(=O)(=O)c2ccc3[nH]c(=O)[nH]c3c2)cc1 | > 54.1 |
| CC1CN(C(=O)NCc2ccccc2)c2cc(Cl)ccc2O1 (centres undefined) | 6.3 (≈ 19.9 µM) |
| C=CCn1cc(C(=O)OCC)c(=O)c2cc(F)c(F)cc21 | > 44 |
| COc1ccc(NS(=O)(=O)c2ccc(N3CCCC3)c(NC(=S)Nc3cccc(C)c3C)c2)cc1 | 7.6 (≈ 14.9 µM) |
| COc1nc(-c2cccc([N+](=O)[O-])c2)nc2ccccc12 | < 0.2 |
| O=C(CCn1c(=O)oc2ccccc21)Nc1ccc(C(=O)O)cc1 | > 48.9 |
| O=C(NC1CCCCCC1)C(Cc1ccccc1)n1cccc1 (centres undefined) | 10.6 (≈ 34.1 µM) |
| OC(CNCCc1c[nH]c2ccccc12)C(F)(F)F (centres undefined) | > 40.8 |
| Cc1cc(C)nc(SCC(=O)c2ccc(F)c(C)c2)n1 | 14.7 (≈ 50.6 µM) |
| Cc1cc(C)nc(SCC(=O)N(C)C)n1 | 31.7 (≈ 141 µM) |
| COCCCNC(=O)c1cc2c(=O)n3cccc(C)c3nc2s1 | 6.3 (≈ 19 µM) |
| CC(C)Cc1ccc(C(C)C(N)=NCCc2ccccc2)cc1.Cl (centres undefined) | 51.3 |
| CC(C)CC(=O)Nc1ccc(Oc2ccc3c(c2)C(=O)NC3=O)cc1 | 0.4 (≈ 1.18 µM) |
| Cc1cccc(C)c1OCC(=O)NC1CC1 | > 32.9 |
| Cc1cccc(C(CC(=O)N2CCCCC2)c2ccccc2)c1O (centres undefined) | 0.8 (≈ 2.47 µM) |
